Reference: article PMC10980815, “Cell surface patching via CXCR4-targeted nanothreads for cancer metastasis inhibition” (Nature Communications, 2024)
Ends that are not written are not given here.

Experiments:
[1] = test system: orthotopic 4T1 breast tumors; assay: Spontaneous lung metastasis model: tumor volume and pulmonary metastatic nodules; format: in vivo, female BALB/c mice
Experimental: For the in vivo investigation of pulmonary metastasis, 4T1 cells (1 × 10^6 cells) were injected into the third mammary fat pad of female BALB/c mice (6–8 weeks). […] Tumor volumes were recorded every other day. On day 28, lungs were harvested and fixed with Bouin’s solutions. The pulmonary metastatic nodules were counted and analyzed by hematoxylin-eosin staining.

[2] = test system: orthotopic 4T1 breast tumors; assay: Tumor-infiltrating CD8+ T lymphocytes, Tregs and MDSCs (flow cytometry); format: in vivo, female BALB/c mice; details: for CD3+CD8+ T cells (%) in tumor / CD11b+Gr1+ MDSCs (%) in tumor / Tregs (%) in CD4+ T cells: Supplementary Fig. 16b
Experimental: 4T1 cells (1 × 10^6 cells) were injected into the third mammary fat pad of female BALB/c mice (6–8-week). When tumor volumes reached nearly […] on day 7 after tumor inoculation, mice were randomly divided into 8 groups (n = 8 per group). For four groups without laser irradiation (−), mice were intravenously injected with the following samples: (1) saline on day 7, 14, 21, and 28, (2) P-PS on day 7, 14, 21, and 28, (3) P-BS-PS on day 7, 14, 21, and 28, or (4) P-BS-CM1 on day 7, 14, 21, and 28, followed by P-PS-CM2 on day 8, 15, 22, and 29 (5 mg/kg BS equivalence, CM1:CM2 1:1 mol%, 2.5 mg/kg PS equivalence), respectively. For four groups with laser irradiation (+), mice were treated with the same regimens and irradiated at 650 nm laser (580 mW/cm^2, 5 min) on day 9, 16, 23 and 30. Tumor volumes and mice survivals were recorded every other day. For the investigation of immune response and lung metastasis, 4T1 tumor-bearing female BALB/c mice (6–8-week, tumor volume~100 mm^3) were randomly divided into 8 groups (n = 5 per group) and given three rounds of above treatments. On day 28, lungs and tumors were harvested. lungs were fixed with Bouin’s solution. The pulmonary metastatic nodules were counted and analyzed by hematoxylin-eosin staining. Single-cell suspensions of tumor tissues were stained with anti-CD45-PerCP/Cy5.5 (1:300 dilution) and anti-calreticulin recombinant rabbit monoclonal antibody (1:500 dilution) at 4 °C for 1 h, and then stained with goat anti-rabbit IgG H&L Alexa Fluor® 647 (1:1000 dilution, 4 °C, 45 min), followed by flow cytometry analysis. ATP and HMGB1 concentrations in the supernatant of cell suspension were measured using a luciferase-based ATP assay kit and a mouse HMGB1 ELISA kit, respectively. Single-cell suspensions of tumors were stained with FITC anti-mouse CD3 antibody (1:300 dilution), PerCP/Cyanine5.5 anti-mouse CD4 antibody (1:300 dilution), anti-CD8α-APC (1:300 dilution), and anti-Foxp3-PE (1:300 dilution) for flow cytometry analysis of T cell subtypes (CD8^+ T cells, CD4^+ effector T cells, and Foxp3^+ regulatory T cells), and stained with PE anti-mouse/human CD11b antibody (1:300 dilution) and FITC anti-mouse Ly-6G/Ly-6C (Gr-1) antibody (1:300 dilution) for flow cytometry analysis of MDSCs (CD11b^+Gr1^+). Cytotoxic T cells in tumor tissues were investigated with immunofluorescent staining of IFN-γ and flow cytometry analysis using anti-IFN-γ-PE (1:300 dilution). For CD8-depletion assay, 4T1 tumor-bearing female BALB/c mice (6–8-week, tumor volume~100 mm^3) were randomly divided into 3 groups (n = 8 per group). Mice were intravenously given four doses of P-BS-CM1 on day 7, 14, 21 and 28, combined with P-PS-CM2 on day 8, 15, 22 and 29 (5 mg/kg BS equivalence, CM1:CM2 1:1 mol%, 2.5 mg/kg PS equivalence) in the presence or absence of InvivoMab anti-mouse CD8α (100 μg/mice). Mice were irradiated at 650 nm laser (580 mW/cm^2, 5 min) on day 9, 16, 23 and 30. Tumor volumes and mice survivals were recorded every other day.

[3] = molecular target: T1, CXCR7 (Mus musculus, UniProt P56485); assay: Dose-dependent chemokine receptor occupation assay; format: binding, 4T1 murine cells; details: 4T1 cells, 0.1 nM to 1 mM, 1 h
T1 construct: endogenous in cells; host or cells: 4T1 murine breast cancer cells
Experimental: (§1) To validate the specificity of the BS (CXCR4-binding sequence) to CXCR4, a dose-dependent chemokine receptors occupation assay and a chemokine receptors competitive binding assay were conducted. […] Unoccupied chemokine receptors (CXCR4, CXCR7, CXCR2, CXCR5, and CCR4) on cell surface were stained with PE anti-human CD184/CXCR4 Antibody (1:300 dilution), anti-CXCR7-PE (1:300 dilution), anti-CXCR2-PE (1:300 dilution), anti-CXCR5-PE (1:300 dilution), and PE anti-human CD194/CCR4 Antibody (1:300 dilution) at 4 °C for 1 h, prior to flow cytometry analysis. In the chemokine receptors competitive binding assay, 4T1 cells (5 × 10^5 cells) were pre-blocked with PE anti-human CD184/CXCR4 Antibody (1:300 dilution), anti-CXCR7-PE (1:300 dilution), anti-CXCR2-PE (1:300 dilution), anti-CXCR5-PE (1:300 dilution), and PE anti-human CD194/CCR4 Antibody (1:300 dilution) at 4 °C for 1 h. Subsequently, these cells were treated with P-Cy5-BS-CM1-Cy5 (5 nM Cy5 equivalence) for 1 h. Following the treatments, cells were washed three times with PBS and subjected to flow cytometry analysis.

[4] = molecular target: T2, CXCR4 (Mus musculus, UniProt P70658); assay: Dose-dependent chemokine receptor occupation assay; format: binding, 4T1 murine cells; details: 4T1 cells, 0.1 nM to 1 mM, 25 °C, 1 h; unoccupied receptor stained with PE antibody
T2 construct: endogenous in cells; host or cells: 4T1 murine breast cancer cells
Experimental: as §1

[5] = molecular target: T3, Cy5-labeled P-BS-CM1 (P-BS-CM1-Cy5) (cysteines embedded within BS joined to maleimides of the HPMA copolymer backbone (thiol-ene click chemistry) | N-terminal cysteine joined to a maleimide of the HPMA copolymer backbone (thiol-ene …)); assay: FRET or BRET; details: both partners purified
T3 construct: copies: 6 + 4
T3 chain 1: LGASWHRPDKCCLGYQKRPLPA
T3 chain 2: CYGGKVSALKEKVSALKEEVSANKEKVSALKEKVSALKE

[6] = molecular target: T4, Nanothread-1 (P-BS-CM1) (not fully specified; cysteines embedded within BS joined to maleimides of the HPMA copolymer backbone (thiol-ene click chemistry) | N-terminal cysteine joined to a maleimide of the HPMA copolymer …); assay: circular dichroism; P-BS-CM1, P-CM2 and their mixtures (CM1:CM2 3:1, 1:1, 1:3), total polymer 10 mg/mL, 10 mM PBS pH 7.4, 25 °C, 10 min; details: both partners purified
T4 construct: source: synthetic peptides grafted on HPMA copolymer (P-Mal), dialysis and lyophilization; copies: 6 + 4
T4 chain 1: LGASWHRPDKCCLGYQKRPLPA
T4 chain 2: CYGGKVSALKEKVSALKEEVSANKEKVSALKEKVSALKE

T2 sequence (P70658 whole entry): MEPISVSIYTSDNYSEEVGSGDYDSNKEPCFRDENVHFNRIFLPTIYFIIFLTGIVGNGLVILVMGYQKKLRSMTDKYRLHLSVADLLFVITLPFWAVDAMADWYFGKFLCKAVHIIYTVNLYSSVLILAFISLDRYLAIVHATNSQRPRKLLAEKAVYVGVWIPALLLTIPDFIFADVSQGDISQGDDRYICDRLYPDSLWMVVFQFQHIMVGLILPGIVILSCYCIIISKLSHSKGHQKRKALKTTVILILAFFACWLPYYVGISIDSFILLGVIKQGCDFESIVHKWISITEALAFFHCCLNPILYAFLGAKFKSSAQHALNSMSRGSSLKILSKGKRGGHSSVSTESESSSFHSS
T1 sequence (P56485 whole entry): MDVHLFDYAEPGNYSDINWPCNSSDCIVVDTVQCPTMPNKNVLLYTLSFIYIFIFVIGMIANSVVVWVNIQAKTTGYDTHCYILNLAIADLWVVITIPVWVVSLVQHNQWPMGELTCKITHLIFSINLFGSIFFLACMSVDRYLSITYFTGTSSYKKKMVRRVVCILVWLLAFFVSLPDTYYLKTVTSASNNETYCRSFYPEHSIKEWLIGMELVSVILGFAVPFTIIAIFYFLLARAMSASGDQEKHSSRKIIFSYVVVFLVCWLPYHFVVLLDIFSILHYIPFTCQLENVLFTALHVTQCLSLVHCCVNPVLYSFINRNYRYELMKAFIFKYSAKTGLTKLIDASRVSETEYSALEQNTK

c1cc(CN2CCCNCCNCCCNCC2)ccc1CN1CCCNCCNCCCNCC1 [AMD3100, reference compound]
Number of metastatic nodules ([1]; 2mg/kg, replicate 1): 31 | Number of metastatic nodules ([1]; 2mg/kg, replicate 2): 32 | Number of metastatic nodules ([1]; 2mg/kg, replicate 3): 20 | Number of metastatic nodules ([1]; 2mg/kg, replicate 4): 20 | Number of metastatic nodules ([1]; 2mg/kg, replicate 5): 18 | Number of metastatic nodules ([1]; 5mg/kg, replicate 1): 12 | Number of metastatic nodules ([1]; 5mg/kg, replicate 2): 14 | Number of metastatic nodules ([1]; 5mg/kg, replicate 3): 15 | Number of metastatic nodules ([1]; 5mg/kg, replicate 4): 9 | Number of metastatic nodules ([1]; 5mg/kg, replicate 5): 12 | primary tumor growth ([1]; nanothreads weekly i.v. x3, AMD3100 i.p. daily 2 or 5 mg/kg day 7-27): dose-dependent anti-tumor activity | CD3+CD8+ T cells (%) in tumor ([2]; 2 mg/kg, replicate 1 of 5): 0.1606% | CD11b+Gr1+ MDSCs (%) in tumor ([2]; 2 mg/kg, replicate 1 of 5): 22.12% | Tregs (%) in CD4+ T cells ([2]; 2 mg/kg, replicate 1 of 5): 12.05% | CD3+CD8+ T cells (%) in tumor ([2]; 2 mg/kg, replicate 2 of 5): 0.2296% | CD11b+Gr1+ MDSCs (%) in tumor ([2]; 2 mg/kg, replicate 2 of 5): 21.04% | Tregs (%) in CD4+ T cells ([2]; 2 mg/kg, replicate 2 of 5): 13.02% | CD3+CD8+ T cells (%) in tumor ([2]; 2 mg/kg, replicate 3 of 5): 0.134% | CD11b+Gr1+ MDSCs (%) in tumor ([2]; 2 mg/kg, replicate 3 of 5): 19.16% | Tregs (%) in CD4+ T cells ([2]; 2 mg/kg, replicate 3 of 5): 16.28% | CD3+CD8+ T cells (%) in tumor ([2]; 2 mg/kg, replicate 4 of 5): 0.1643% | CD11b+Gr1+ MDSCs (%) in tumor ([2]; 2 mg/kg, replicate 4 of 5): 20.68% | Tregs (%) in CD4+ T cells ([2]; 2 mg/kg, replicate 4 of 5): 11.04% | CD3+CD8+ T cells (%) in tumor ([2]; 2 mg/kg, replicate 5 of 5): 0.1515% | CD11b+Gr1+ MDSCs (%) in tumor ([2]; 2 mg/kg, replicate 5 of 5): 18.7% | Tregs (%) in CD4+ T cells ([2]; 2 mg/kg, replicate 5 of 5): 18.84% | CD3+CD8+ T cells (%) in tumor ([2]; 5 mg/kg, replicate 1 of 5): 0.2311% | CD11b+Gr1+ MDSCs (%) in tumor ([2]; 5 mg/kg, replicate 1 of 5): 16.63% | Tregs (%) in CD4+ T cells ([2]; 5 mg/kg, replicate 1 of 5): 7.21% | CD3+CD8+ T cells (%) in tumor ([2]; 5 mg/kg, replicate 2 of 5): 0.1528% | CD11b+Gr1+ MDSCs (%) in tumor ([2]; 5 mg/kg, replicate 2 of 5): 14.04% | Tregs (%) in CD4+ T cells ([2]; 5 mg/kg, replicate 2 of 5): 6.69% | CD3+CD8+ T cells (%) in tumor ([2]; 5 mg/kg, replicate 3 of 5): 0.1403% | CD11b+Gr1+ MDSCs (%) in tumor ([2]; 5 mg/kg, replicate 3 of 5): 15.32% | Tregs (%) in CD4+ T cells ([2]; 5 mg/kg, replicate 3 of 5): 12.48% | CD3+CD8+ T cells (%) in tumor ([2]; 5 mg/kg, replicate 4 of 5): 0.2195% | CD11b+Gr1+ MDSCs (%) in tumor ([2]; 5 mg/kg, replicate 4 of 5): 14.1% | Tregs (%) in CD4+ T cells ([2]; 5 mg/kg, replicate 4 of 5): 10.38% | CD3+CD8+ T cells (%) in tumor ([2]; 5 mg/kg, replicate 5 of 5): 0.1508% | CD11b+Gr1+ MDSCs (%) in tumor ([2]; 5 mg/kg, replicate 5 of 5): 16% | Tregs (%) in CD4+ T cells ([2]; 5 mg/kg, replicate 5 of 5): 8.46% | tumor-infiltrating CD8+ T cells ([2]; day 28, AMD3100 i.p. daily 2 or 5 mg/kg, nanothreads weekly i.v.): remained low | CXCR7 occupation [3]: low affinity | CXCR4 occupation [4]: occupied CXCR4

C(HPMA copolymer)YGGEVSALEKEVSALEKKNSALEKEVSALEKEVSALEK (other, also: Cy3 label on conjugate, position not given here, copies: 12) [Cy3-labeled P-CM2 (P-CM2-Cy3)]
binding result [5]: binds

B1: HPMA copolymer-CM2 conjugate (P-CM2) (other)
peptide: CYGGEVSALEKEVSALEKKNSALEKEVSALEKEVSALEK
modifications: not fully specified (residue 1)
notes: source: synthetic peptide grafted on HPMA copolymer (P-Mal), dialysis and lyophilization; copies: 12
binding result [6]: binds
